Source: US11628146B2, “Estrogen receptor ligand treatment for neurodegenerative diseases” (The Regents of the University of California, priority 2014, dated 2023)
Entries after “also recorded” stand apart in the source; their conditions may differ.

How the values were obtained:
[1] = system: female C57BL/6 mice with EAE; assay: In vivo longitudinal MRI of brain volumes in EAE; parameters: species or system mouse
Method: MRI Acquisition. Mice were anesthetized with isofluorane and their heads secured with bite and ear bars. Respiration rate was monitored and the mice were maintained at 37° C. using a circulating water pump. In vivo magnetic resonance imaging was performed using a 200 mm horizontal bore 7.0 T Bruker imaging spectrometer with a micro-imaging gradient insert with a maximum gradient strength of 100 G/cm and 30 mm birdcage RF coil (Bruker Instruments, Billerica, Mass.). An actively decoupled quadrature surface coil array was used for signal reception and a 72-mm birdcage coil was used for transmission. Images were acquired and reconstructed using ParaVision 5.1 software. Imaging parameters were as follows: rapid-acquisition with relaxation enhancement (RARE) sequence, matrix dimensions=256×128×64; field of view=3.84 cm×1.92 cm×0.96 cm; repetition time (TR)=3500 ms; apparent time to echo (apparent TE)=32 ms; echo train length=16; total scan time=37 mins. Spatial resolution was 150 μm^3 per voxel.
MRI Analysis. Images were skull-stripped using the Brain Surface Extractor (BSE) and residual non-brain signal was removed by a single operator manually editing the masks using BrainSuite 11a and bias-field inhomogeneities removed using the N3 correction. After inhomogeneity correction, a minimum deformation atlas (MDA) was produced. Images were spatially and intensity normalized to the MDA using a rigid-body transformation and an intensity rescaling cost function in Alignlinear (AIR). This process permits the comparison of images in a standard space correcting for both gross positional and intensity differences, yet preserving anatomically significant local changes. Following creation of this atlas, cerebral cortices and cerebella were manually labeled on the atlas. The labels were then warped onto the individual spatially normalized images to produce standardized estimates of gray matter volumes in individual subjects. All automated image processing was performed using the LONI Pipeline Processing Environment on an 8-processor core Mac Pro computer (Apple, Cupertino, Calif.).
Cerebral cortex and cerebellum labels were based on the Mouse Atlas Project 2003 mouse brain atlas. […] Importantly, this label contained the somatosensory regions (primary and secondary) and the motor cortex (primary and secondary). Additional anatomical information was obtained from the Franklin and Paxinos mouse brain atlas (Franklin and Paxinos, 2008).
Statistics. Global and regional brain volume changes in EAE mice and control animals were compared with repeated measures ANOVAs using SPSS 22 (IBM, Armonk, N.Y.). […] Regression analysis and Welch's t-tests were performed in Excel 2011 (Microsoft, Redmond, Wash.). All results are presented as mean±standard deviation.

[2] = system: EAE in NOD mice; assay: Rotarod testing in EAE, NOD mice; type: in vivo, mouse; parameters: key to Rotarod Score: n.s. = not significant; *p < 0.05; ***p = 0.0004; ****p < 0.0001; n.i. = not informative
Method: Rotarod Testing. Motor behavior was tested up to two times per week for each mouse using a rotarod apparatus (Med Associates Inc., St. Albans, Vt.). Briefly, animals were placed on a rotating horizontal cylinder for a maximum of 200 seconds. The amount of time the mouse remained walking on the cylinder, without falling, was recorded. Each mouse was tested on a speed of 3-30 rpm and given three trials for any given day. The three trials were averaged to report a single value for an individual mouse, and then averages were calculated for all animals within a given treatment group. The first two trial days prior to immunization (day 0), served as practice trials.

[3] = 30 mg/kg every other day in miglyol, d0, d30, d60, vs vehicle-treated EAE

With `Oc1ccc(C2(c3ccccc3F)CCC(F)(F)CC2)cc1` [AC-186] the “Cerebellar atrophy (volume loss)” value [1, 3] was “decreased the amount of volume loss; also recorded: less cerebellar atrophy”, the Cerebral cortex atrophy [1, 3] was “atrophy rates were decreased; also recorded: less atrophy in the cerebral cortex” and the “Whole brain atrophy (whole brain volume decrease over time)” value [1, 3] was “significantly smaller; also recorded: less brain atrophy”. The “Volume of the whole cerebellum” value ([1]; AC-186 30 mg/kg treated EAE mice, d60, mean, SD 1.1 mm^3) was 51.8 mm^3, the “Volume of the cerebral cortex” value ([1]; AC-186 30 mg/kg treated EAE mice, d60, mean, SD 1.6 mm^3) was 70.8 mm^3 and the “Volume of the whole brain” value ([1]; AC-186 30 mg/kg treated EAE mice, d60, mean, SD 7.0 mm^3) was 483 mm^3. For the same molecule, the “Difference in cerebellum volume vs vehicle treated EAE mice” value ([1]; d60, vehicle 50.0 mm^3) was 3.5%, the “Difference in cerebral cortex volume vs vehicle treated EAE mice” value ([1]; d60, vehicle 68.9 mm^3) was 5.0% and the “Difference in whole brain volume vs vehicle treated EAE mice” value ([1]; d60, vehicle 478 mm^3) was 2.7%. For the same molecule, the “Rotarod Score” value ([2]; NOD F, AC186 10 mg/kg, miglylol vehicle) was “n.i”, the “Rotarod Score” value ([2]; NOD F, AC186 30 mg/kg, miglylol vehicle) was “n.i” and the “Rotarod Score” value ([2]; NOD F, AC186 30 mg/kg, sesame vehicle) was “n.i”. The “Rotarod Score” value ([2]; NOD M, AC186 10 mg/kg, miglylol vehicle) was “n.i”, the “Rotarod Score” value ([2]; NOD M, AC186 30 mg/kg, miglylol vehicle) was “n.i” and the Rotarod times ([2]; NOD males, AC-186 in miglyol, vs vehicle) was “no significant improvement in performance in the rotarod experiment”.
